Laboratory results taken from patent publication EP4125996B1, “EZRIN PEPTIDE 1 FOR USE IN A METHOD OF TREATING COVID-19” (priority 2020, dated 2024).
Ends that are not written are not given here.

Experiments:
J-96 Human Cell Line = conditions: cell cultures; R. Ataullakhanov et al. 2005; cited from earlier work
[1] = high dosages of 50 mg per kg body weight per day or higher; no test or source given; cited from earlier work
SARS-CoV-2 = test: Case reports: subcutaneous Ezrin peptide 1 in patients with COVID-19; type: in vivo, humans

**Q.** Which results are given for “TEKKRRETVEREKE [Ezrin peptide 1, NH2_Thr-Glu-Lys-Lys-Arg-Arg-Glu-Thr-Val-Glu-Arg-Glu-Lys-Glu_COOH]”?
**A.** anti-viral effect (J-96 Human Cell Line): has shown an anti-viral effect; toxicity [1]: not toxic; Course of Disease (symptoms) (SARS-CoV-2; Example 1, patient, 0.2 mg s.c. daily, 15.03.2020, 2nd administration): increasing symptoms; Course of Disease (symptoms) (SARS-CoV-2; Example 1, 0.2 mg s.c. daily, 16.03.2020, 3rd administration): increasing symptoms with strong eye pain; Course of Disease (symptoms) (SARS-CoV-2; Example 1, 0.2 mg s.c. daily, 17.03.2020, 4th administration): increasing symptoms with more cough; Course of Disease (symptoms) (SARS-CoV-2; Example 1, 0.2 mg s.c. daily, 18.03.2020, 5th administration): significant signs of recovery, no eye pain, decreasing fever; Course of Disease (symptoms) (SARS-CoV-2; Example 1, 0.2 mg s.c. daily, 19.03.2020, 6th administration): significant signs of recovery, normal body temperature, no fatigue; Course of Disease (symptoms) (SARS-CoV-2; Example 1, 0.2 mg s.c. daily, 20.03.2020, 7th administration): return of taste, good general condition; Course of Disease (symptoms) (SARS-CoV-2; Example 1, 0.2 mg s.c. daily, 21.03.2020, 8th administration): no signs of illness anymore; course of the disease (duration) (SARS-CoV-2; Example 1, compared with the course expected for patients of this risk group): significantly shorter; severity of symptoms after administration (SARS-CoV-2; Example 1, compared with what is expected in a patient of this risk group): significantly lower; body temperature (SARS-CoV-2; Example 2, patient, 2 mg s.c. per dose, 25.04.2020 in the morning, second dose): 37.5 °C; body temperature (SARS-CoV-2; Example 2, 2 mg s.c., 25.04.2020 in the evening): 39.0 °C; Course of Disease (symptoms) (SARS-CoV-2; Example 2, 2 mg s.c., 25.04.2020, second dose): still general weakness, shortness of breath, cough, loss of appetite; body temperature (SARS-CoV-2; Example 2, 2 mg s.c., 26.04.2020 in the evening): 37.5 °C; Course of Disease (symptoms) (SARS-CoV-2; Example 2, 2 mg s.c., 26.04.2020, third administration): Still loss of appetite, slight cough; body temperature (SARS-CoV-2; Example 2, 2 mg s.c., 27.04.2020): 37.4 °C; Course of Disease (symptoms) (SARS-CoV-2; Example 2, 2 mg s.c., 27.04.2020, fourth dose): Slight cough, slight headache; body temperature (SARS-CoV-2; Example 2, 2 mg s.c., 28.04.2020): 37.3 °C; Course of Disease (symptoms) (SARS-CoV-2; Example 2, 2 mg s.c., 28.04.2020, fifth administration): Only slight pain of touching the scalp, still slight weakness; Course of Disease (symptoms) (SARS-CoV-2; Example 2, 2 mg s.c., 30.04.2020, sixth administration): Significant improvement of clinical symptoms, normal temperature; Course of Disease (symptoms) (SARS-CoV-2; Example 2, 01. to 04.05.2020, after six doses, antibiotic coverage due to increased CRP level): taste completely returned, no more cough, no more fever, clinical well-being; Course of Disease (symptoms) (SARS-CoV-2; Example 3, patient, 2 mg/d then 0.2 mg/d for four days s.c., 25.12.2020 (therapy begun 23.12.2020)): significant improvement of cough and general condition; Course of Disease (symptoms) (SARS-CoV-2; Example 3, after completion of HEP-1 therapy): No further symptoms; Course of Disease (symptoms) (SARS-CoV-2; Example 4, patient, 2 mg/d for two days then 0.2 mg/d for four days s.c., 25.12.2020 (therapy begun 23.12.2020)): significant improvement of cough and general condition; Course of Disease (symptoms) (SARS-CoV-2; Example 4, after completion of HEP-1 therapy): No further symptoms; Course of Disease (symptoms) (SARS-CoV-2; Example 5, patient, 2 mg/d for two days then 0,2 mg/d for four days s.c., 26.12.2020 (therapy begun 23.12.2020)): significant improvement of symptoms; Course of Disease (symptoms) (SARS-CoV-2; Example 5, after completion of the initial HEP-1 therapy): No further symptoms after completion of HEP-1 therapy until 13.01.2021, then severe shortness of breath; Course of Disease (shortness of breath) (SARS-CoV-2; Example 5, after subsequent 0,2 mg/d s.c. for fourteen days from 15.01.2021): No further shortness of breath; Course of Disease (symptoms) (SARS-CoV-2; Example 6, patient, 0.2 mg/d s.c. for ten days from 10.12.2020, 14.12.2020): significant improvement of symptoms; Course of Disease (symptoms) (SARS-CoV-2; Example 6, 0.2 mg/d s.c. for ten days, 20.12.2020): complete recovery of symptoms
